Test results taken from patent US8415453B2, “Lung cancer-targeted peptides and applications thereof” (Academia Sinica, priority 2007, dated 2013).
Where no end group is shown, it is not given here. The star is where a group is joined. FITC = O=C1OC2(c3ccc(O)cc3Oc3cc(O)ccc32)c2ccc(NC(=S)*)cc21

Tests used:
A549 cells = assay: Peptide-binding assay with FITC-labeled peptide, immunofluorescent staining; format: cell-based, human
Protocol: (§1) To investigate whether the synthetic peptide and the selected phage clone competed for the same binding site, a peptide-competitive inhibition assay was performed by immunofluorescent staining. Targeting peptide TDSILRSYDWTY (SP5-2) [SEQ ID NO: 2] and control peptide (RLLDTNRPLLPY) [SEQ ID NO: 22] were synthesized and purified by reverse-phase high-performance liquid chromatography to >95% purity by Invitrogene, Inc. (CA, USA). Conjugation of these peptides with FITC or biotin was performed by adding FITC or biotin to the peptide NH2 terminus by the same company.

CL1-5 cells [1] = assay: as above; format: cell-based, human
Protocol: as §1

H23 cells = assay: as above; format: cell-based, human
Protocol: as §1

H460 cells = assay: as above; format: cell-based, human
Protocol: as §1

PC13 cells = assay: as above; format: cell-based, human
Protocol: as §1

CL1-5 cells [2] = assay: Peptide-competitive inhibition assay by immunofluorescent staining; format: cell-based, human
Protocol: as §1
Phages were mixed with different concentrations of synthetic peptides and incubated with cells at 4° C. for 1 h. The slides were further incubated with mouse anti-M13 monoclonal antibody (Amersham Biosciences, Uppsala, Sweden), followed by incubation with FITC-labeled goat anti-mouse antibody (Jackson ImmunoResearch). The slides were washed and mounted with mounting medium (Vector, Calif., USA). Then the slides were examined under a Leica Universal microscope. The images were merged by SimplePCI (C-IMAGING, PA, USA) software.

CL1-5-derived tumors = assay: In vivo tumor homing, phage titers recovered from tumor and organs; set-up: species or system SCID mice; settings: for effect of co-injected peptide on recovery of PC5-2 from tumor mass: co-injection of 100 μg peptide
Protocol: (§2) To investigate the targeting ability of PC5-2 in vivo, phages were injected into the tail vein of mice bearing CL1-5-derived tumors and recovered after perfusion. SCID mice were injected subcutaneously into the dorsolateral flank with 1×10^7 cancer cells. The mice bearing size-matched lung cancer-derived tumor (tumor sizes about 500 mm3) were injected with targeting phage or control phage through the tail vein. Eight minutes after injection, the mice were treated with diethyl ether to drive them into deep anesthesia. Then the mice were perfused with 50 ml PBS to wash unbound phage. The control organs (brain, heart, and lung) and tumor mass were removed, weighed, and washed three times with cold PBS-PI (protease inhibitor cocktail tablet; Roche, Germany). The organ and tumor samples were homogenized. Then, the phage bound to the tumor mass or control organs were rescued by adding 0.5 ml ER2738 bacterial for 30 minutes at 37° C. The eluted phage particles were titered on agar plates in the presence of 1 mg/L of IPTG/X-Gal. In peptide competitive inhibition experiments, the phages were co-injected with 100 μg of synthetic peptide. We also used the control peptide. The organs and tumor masses were fixed in Bouin's solution for 2 h. After fixation, the samples were embedded in paraffin blocks. The paraffin sections were deparaffinized, rehydrated and subjected to immunostaining using M13 monoclonal antibody, as mentioned above.

CL1-5 cells [3] = assay: Flow cytometry of phage-bound cells; format: cell-based, human; settings: peptide competitive inhibition
Protocol: Furthermore, to investigate the target molecule expressed on the cell surface of CL1-5, we measured PC5-2-bound cells using flow cytometry. Lung and other cancer cell lines were cultured overnight and then suspended in PBS containing 50 mM EDTA and blocked with blocking buffer at 4° C. for 30 minutes. The cells were washed 2 times with flow buffer (PBS containing 1% fetal bovine serum). The cells were incubated with phages or FITC-labeled peptide. For the peptide competitive inhibition assay, the phages were mixed with different concentrations of synthetic peptides and the mixture was incubated with the cells. After washing two times with cold flow buffer, the phage-bound cells were incubated with anti-M13 monoclonal antibodies at 4° C. for 1 h and then treated with FITC-conjugated goat anti-mouse IgG antibody. The cells were washed two times with cold flow buffer and then applied to a flow cytometer (Becton Dickinson).

NSCLC xenografts = assay: In vivo tissue distribution of phage by immunostaining; set-up: species or system SCID mice; settings: in vivo homing
Protocol: as §2, with “The paraffin sections were deparaffinized, rehydrated and subjected to immunostaining using M13 monoclonal antibody, as mentioned above.” left out

Substance | binding of FITC-labeled peptide to cells (A549 cells) | binding of FITC-labeled peptide to cells (CL1-5 cells [1]) | binding of FITC-labeled peptide to cells (H23 cells) | binding of FITC-labeled peptide to cells (H460 cells) | binding of FITC-labeled peptide to cells (PC13 cells) | effect of synthetic peptide on binding of PC5-2 phage to CL1-5 cells (CL1-5 cells [2]) | effect of co-injected peptide on recovery of PC5-2 from tumor mass (CL1-5-derived tumors) | peptide concentration able to inhibit the PC5-2 binding activity completely (CL1-5 cells [2]; CL1-5) | effect of peptide on phage bound to CL1-5 cells (CL1-5 cells [3]) | inhibition of PC5-2 binding to tumor mass (CL1-5-derived tumors; co-injection of one hundred micrograms of peptide) | effect of peptide on targeting of PC5-2 to NSCLC xenograft (NSCLC xenografts)
FITC-labeled control peptide: control peptide RLLDTNRPLLPY with FITC at the NH2 terminus ({FITC}-RLLDTNRPLLPY) | no such binding activity | no such binding activity | no such binding activity | no such binding activity | no such binding activity |  |  |  |  |  | 
RLLDTNRPLLPY [control peptide] |  |  |  |  |  | no such effect | no such inhibitory effect |  |  |  | 
TDSILRSYDWTY [SP5-2] |  |  |  |  |  | inhibited | markedly inhibited | 27 µg/mL | completely inhibited | 92% | inhibited
